Laboratory results published in patent US6528543B1, “Urea derivatives” (Hoffman-La Roche Inc., priority 1999, dated 2003).

Row | melting point [°C] | Structure (SMILES)
1 | 52 to 55 | CNC(=O)NC(=O)C(CC1CCCC1)c1cccc(Cl)c1 (stereo not shown) [Example 2, 1-[2-(3-chloro-phenyl)-3-cyclopentyl-propionyl]-3-methyl-urea]
2 | 111 to 113 | CNC(=O)NC(=O)C(CC1CCCC1)c1ccc(F)c(F)c1 (stereo not shown) [Example 3, 1-[3-cyclopentyl-2-(3,4-difluoro-phenyl)-propionyl]-3-methyl-urea]
3 | 145 to 147 | CNC(=O)NC(=O)C(CC1CCCC1)c1ccc(Cl)cc1 (stereo not shown) [Example 4, 1-[2-(4-chloro-phenyl)-3-cyclopentyl-propionyl]-3-methyl-urea]
4 | 144 to 145 | CNC(=O)NC(=O)C(CC1CCCC1)c1ccc(SC(F)(F)F)cc1 (stereo not shown) [Example 8, 1-[3-cyclopentyl-2-(4-trifluoromethylsulfanyl-phenyl)-propionyl]-3-methyl urea]
5 | 191 to 192 | CNC(=O)NC(=O)C(CC1CCCC1)c1ccc(S(=O)(=O)C(F)(F)F)cc1 (stereo not shown) [Example 9, 1-[3-cyclopentyl-2-(4-trifluoromethanesulfonyl-phenyl)-propionyl]-3-methyl urea]
6 | 124.8 to 127.5 | CNC(=O)NC(=O)[C@H](CC1CCCC1)c1ccc(Cl)c(Cl)c1 [Example 13, 1-[3-cyclopentyl-2(R)-(3,4-dichloro-phenyl)-propionyl]-3-methyl-urea]
7 | 59 to 62 | CNC(=O)NC(=O)C(CC1CCCC1)c1cccc(S(=O)(=O)C(F)(F)F)c1 (stereo not shown) [Example 31, 1-[3-cyclopentyl-2-(3-trifluoromethanesulfonyl-phenyl)-propionyl]-3-methyl-urea]
8 | 187 to 189 | CNC(=O)NC(=O)C(CC1CCCC1)c1ccc(C(F)(F)F)c(F)c1 (stereo not shown) [Example 32, 1-[3-cyclopentyl-2-(3-fluoro-4-trifluoromethyl-phenyl)-propionyl]-3-methyl-urea]
9 | 259 to 260 | CNC(=O)NC(=O)C(CC1CCCC1)c1ccc(S(C)(=O)=O)c(Br)c1 (stereo not shown) [Example 35, 1-[2-(3-bromo-4-methanesulfonyl-phenyl)-3-cyclopentyl-propionyl]-3-methyl-urea]
10 | 268 to 270 | CNC(=O)NC(=O)C(CC1CCCC1)c1ccc(S(C)(=O)=O)c(C(F)(F)F)c1 (stereo not shown) [Example 40, 1-[3-cyclopentyl-2-(4-methanesulfonyl-3-trifluoromethyl-phenyl)-propionyl]-3-methyl-urea]
11 | 199 to 200 | CNC(=O)NC(=O)C(CC1CCCC1)c1ccc(S(C)(=O)=O)c(F)c1 (stereo not shown) [Example 42, 1-[3-cyclopentyl-2-(3-fluoro4-methanesulfonyl-phenyl)-propionyl]-3-methyl-urea]

The next lines start with the compound.

Row | Structure (SMILES) | melting point [°C]
12 | NC(=O)NC(=O)C(CC1CCCCC1)c1ccc(Cl)c(Cl)c1 (stereo not shown) [Example 1] | 76 to 79
13 | CNC(=O)NC(=O)C(CC1CCCC1)c1ccc([N+](=O)[O-])cc1 (stereo not shown) [Example 5, 1-[3-cyclopentyl-2-(4-nitro-phenyl)-propionyl]-3-methyl-urea] | 179 to 183
14 | CNC(=O)NC(=O)C(CC1CCCC1)c1ccccc1 (stereo not shown) [Example 6, 1-(3-cyclopentyl-2-phenyl-propionyl)-3-methyl-urea] | 145 to 147
15 | CNC(=O)NC(=O)C(CC1CCCC1)c1ccc(Br)cc1 (stereo not shown) [Example 7, 1-[2-(4-bromo-phenyl)-3-cyclopentyl-propionyl]-3-methyl urea] | 184 to 186
16 | CNC(=O)NC(=O)C(CC1CCCC1)c1ccc(SC)cc1 (stereo not shown) [Example 10, 1-[3-cyclopentyl-2-(4-methylsulfanyl-phenyl)-propionyl]-3-methyl urea] | 185 to 186
17 | CNC(=O)NC(=O)C(CC1CCCC1)c1ccc(S(C)(=O)=O)cc1 (stereo not shown) [Example 11, 1-[3-cyclopentyl-2-(4-methanesulfonyl-phenyl)-propionyl]-3-methyl urea] | 205 to 206
18 | CNC(=O)NC(=O)C(CC1CCCC1)c1ccc(S(C)(=O)=O)c([N+](=O)[O-])c1 (stereo not shown) [Example 14, 1-[3-cyclopentyl-2-(4-methanesulfonyl-3-nitrophenyl)-propionyl]-3-methyl-urea] | 241 to 242
19 | CC(C)CC(C(=O)NC(N)=O)c1ccc(Cl)cc1 (stereo not shown) [Example 16, [2-(4-chloro-phenyl)-4-methyl-pentanoyl]-urea] | 164 to 165
20 | CC(C)C[C@@H](C(=O)NC(N)=O)c1ccc(Cl)c(Cl)c1 [Example 17, R-[2-(3,4-dichloro-phenyl)-4-methyl-pentanoyl]-urea] | 138 to 140
21 | CC(O)CNC(=O)NC(=O)C(CC1CCCC1)c1ccc(Cl)c(Cl)c1 (stereo not shown) [Example 19, 1-[3-cyclopentyl-2-(3,4-dichloro-phenyl)-propionyl]-3-(2-hydroxy-propyl)-urea] | 116.7 to 119.9
22 | COC(=O)CNC(=O)NC(=O)C(CC1CCCC1)c1ccc(Cl)c(Cl)c1 (stereo not shown) [Example 21, {3-[3-cyclopentyl-2-(3,4-dichloro-phenyl)-propionyl]-ureido}-acetic acid methyl ester] | 134.5 to 136.6
23 | CCS(=O)(=O)c1ccc(C(CC2CCCC2)C(=O)NC(=O)NC)cc1 (stereo not shown) [Example 33, 1-[3-cyclopentyl-2-(4-ethanesulfonyl-phenyl)-propionyl]-3-methyl-urea] | 200 to 201
24 | CNC(=O)NC(=O)C(CC1CCCC1)c1ccc(Cl)c([N+](=O)[O-])c1 (stereo not shown) [Example 34, 1-[2-(4-chloro-3-nitro-phenyl)-3-cyclopentyl-propionyl]-3-methyl-urea] | 61 to 64
25 | CNC(=O)NC(=O)C(CC1CCCC1)c1ccc(S(C)(=O)=O)c(C#N)c1 (stereo not shown) [Example 36, 1-[2-(3-cyano-4-methanesulfonyl-phenyl)-3-cyclopentyl-propionyl]-3-methyl-urea] | 237 to 239
26 | CNC(=O)NC(=O)C(CC1CCCC1)c1ccc(S(C)(=O)=O)c(S(C)(=O)=O)c1 (stereo not shown) [Example 37, 1-[2-(3,4-bis-methanesulfonyl-phenyl)-3-cyclopentyl-propionyl]-3-methyl-urea] | 220 to 222
27 | CCCCS(=O)(=O)c1ccc(C(CC2CCCC2)C(=O)NC(=O)NC)cc1 (stereo not shown) [Example 39, 1-{2-[4-(butane-1-sulfonyl)-phenyl]-3-cyclopentyl-propionyl}-3-methyl-urea] | 189 to 191
28 | CNC(=O)NC(=O)C(CC1CCCC1)c1ccc(C#N)cc1 (stereo not shown) [Example 43, 1-[2-(4-cyano-phenyl)-3-cyclopentyl-propionyl]-3-methyl-urea] | 61 to 65
